Data taken from ChEMBL document CHEMBL3758105 (J Med Chem, 2016).

Experiments:
Cynomolgus monkey [1] = assay: Nephrotoxicity in cynomolgus monkey at 50 to 1000 mg/kg/day, po administered for 14 days; format: toxicity, organism-based, Macaca fascicularis; settings: in vivo, 336 h
Cytochrome P450 1A2 = molecular target: T1, Cytochrome P450 1A2 (Homo sapiens, UniProt P05177); assay: Inhibition of CYP1A2 (unknown origin); format: ADME
T1 sequence (P05177 whole entry): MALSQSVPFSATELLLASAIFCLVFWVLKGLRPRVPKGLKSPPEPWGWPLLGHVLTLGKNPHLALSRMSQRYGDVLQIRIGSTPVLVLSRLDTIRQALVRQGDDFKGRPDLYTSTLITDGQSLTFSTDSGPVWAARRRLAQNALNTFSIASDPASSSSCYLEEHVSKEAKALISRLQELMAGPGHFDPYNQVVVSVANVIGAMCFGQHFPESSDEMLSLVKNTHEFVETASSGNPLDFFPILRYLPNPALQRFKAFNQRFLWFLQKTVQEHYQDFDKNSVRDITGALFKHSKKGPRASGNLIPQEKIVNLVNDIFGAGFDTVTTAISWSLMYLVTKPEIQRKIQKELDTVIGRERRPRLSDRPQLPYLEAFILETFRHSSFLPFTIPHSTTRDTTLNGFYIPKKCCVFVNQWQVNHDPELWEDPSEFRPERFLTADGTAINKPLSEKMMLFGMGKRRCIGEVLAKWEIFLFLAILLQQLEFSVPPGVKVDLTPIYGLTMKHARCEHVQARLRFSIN

Collagenase 3 = Collagenase 3 (Homo sapiens, UniProt P45452); assay: Inhibition of full length human recombinant MMP13 using MCA-Arg-Pro-Leu-Gly-Leu-Dpa-Ala-Arg-Glu-Arg-NH2 as substrate preincubated for 60 mins followed by substrate addition by fluorescence assay
[2] = Intrinsic clearance in human liver microsomes measured over 40 mins by HPLC/MS analysis; format: ADME; settings: read-out: CLH
[3] = Clearance in Sprague-Dawley rat at 1 mg/kg, iv administered as bolus dose by LC-MS/MS analysis; format: ADME, organism-based; settings: in vivo
[4] = Oral bioavailability in Sprague-Dawley rat at 1 mg/kg; format: ADME, organism-based; settings: in vivo
Cytochrome P450 2D6 = Cytochrome P450 2D6 (Homo sapiens, UniProt P10635); assay: Inhibition of CYP2D6 (unknown origin); format: ADME
Chain of Cytochrome P450 2D6 (P10635 whole entry): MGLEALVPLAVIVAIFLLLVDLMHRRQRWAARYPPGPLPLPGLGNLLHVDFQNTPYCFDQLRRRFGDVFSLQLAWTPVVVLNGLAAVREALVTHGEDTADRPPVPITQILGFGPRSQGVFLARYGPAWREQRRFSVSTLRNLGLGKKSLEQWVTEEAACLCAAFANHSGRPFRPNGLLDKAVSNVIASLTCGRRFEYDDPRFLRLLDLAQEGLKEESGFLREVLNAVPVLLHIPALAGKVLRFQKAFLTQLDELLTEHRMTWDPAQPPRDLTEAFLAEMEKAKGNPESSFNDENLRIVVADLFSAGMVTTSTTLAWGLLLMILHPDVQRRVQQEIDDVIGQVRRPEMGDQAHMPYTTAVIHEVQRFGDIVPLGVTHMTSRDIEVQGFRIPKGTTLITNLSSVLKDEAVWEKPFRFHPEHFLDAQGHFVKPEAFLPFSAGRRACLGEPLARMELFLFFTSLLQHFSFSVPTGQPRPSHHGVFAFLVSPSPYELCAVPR

Cytochrome P450 3A4 = Cytochrome P450 3A4 (Homo sapiens, UniProt P08684); assay: Inhibition of CYP3A4 (unknown origin); format: ADME
Chain of Cytochrome P450 3A4 (P08684 whole entry): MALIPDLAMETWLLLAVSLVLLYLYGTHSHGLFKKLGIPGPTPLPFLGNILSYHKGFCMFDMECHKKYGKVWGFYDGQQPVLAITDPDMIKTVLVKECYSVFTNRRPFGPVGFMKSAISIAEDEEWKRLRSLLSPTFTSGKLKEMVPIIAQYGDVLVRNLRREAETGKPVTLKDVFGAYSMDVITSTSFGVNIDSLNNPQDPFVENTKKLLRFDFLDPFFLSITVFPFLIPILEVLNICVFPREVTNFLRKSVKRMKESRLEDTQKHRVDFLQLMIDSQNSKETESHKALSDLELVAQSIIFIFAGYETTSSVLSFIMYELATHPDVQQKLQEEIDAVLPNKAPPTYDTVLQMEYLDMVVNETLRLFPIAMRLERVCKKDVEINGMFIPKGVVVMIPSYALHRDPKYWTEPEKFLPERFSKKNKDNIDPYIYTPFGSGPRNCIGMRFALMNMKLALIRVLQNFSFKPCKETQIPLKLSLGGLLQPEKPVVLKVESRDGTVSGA

[5] = Clearance in cynomolgus monkey at 1 mg/kg, po and iv; format: ADME, organism-based, Macaca fascicularis; settings: in vivo
[6] = Oral bioavailability in cynomolgus monkey at 1 mg/kg; format: ADME, organism-based, Macaca fascicularis; settings: in vivo
Rattus norvegicus [7] = assay: Drug metabolism in Sprague-Dawley rat assessed as (2S,5S)-5-((5-(6-((4-Fluoro-3-methoxybenzyl)carbamoyl)-2-methylpyrimidin-4-yl)-2H-tetrazol-2-yl)methyl)-1,4-dioxane-2-carboxylic acid formation at 1 mg/kg, po; format: ADME, organism-based; settings: in vivo
Cynomolgus monkey [8] = assay: Drug metabolism in cynomolgus monkey assessed as (2S,5S)-5-((5-(6-((4-Fluoro-3-methoxybenzyl)carbamoyl)-2-methylpyrimidin-4-yl)-2H-tetrazol-2-yl)methyl)-1,4-dioxane-2-carboxylic acid formation at 1 mg/kg, po; format: ADME, organism-based, Macaca fascicularis; settings: in vivo
Hepatocyte [9] = assay: Drug metabolism in human hepatocytes assessed as (2S,5S)-5-((5-(6-((4-Fluoro-3-methoxybenzyl)carbamoyl)-2-methylpyrimidin-4-yl)-2H-tetrazol-2-yl)methyl)-1,4-dioxane-2-carboxylic acid formation; format: ADME, cell-based
Hepatocyte [10] = assay: Drug metabolism in human hepatocytes assessed as demethylation; format: ADME, cell-based
Hepatocyte [11] = assay: Drug metabolism in human hepatocytes assessed as methyl oxidation; format: ADME, cell-based
Hepatocyte [12] = assay: Drug metabolism in human hepatocytes assessed as glucuronidation; format: ADME, cell-based
Hepatocyte [13] = assay: Drug metabolism in human hepatocytes assessed as sulfate conjugation; format: ADME, cell-based
[14] = Drug metabolism in cynomolgus monkey hepatocytes assessed as (2S,5S)-5-((5-(6-((4-Fluoro-3-methoxybenzyl)carbamoyl)-2-methylpyrimidin-4-yl)-2H-tetrazol-2-yl)methyl)-1,4-dioxane-2-carboxylic acid formation; format: ADME, cell-based, Macaca fascicularis, Hepatocyte
[15] = Drug metabolism in cynomolgus monkey hepatocytes assessed as demethylation; format: ADME, cell-based, Macaca fascicularis, Hepatocyte
[16] = Drug metabolism in cynomolgus monkey hepatocytes assessed as methyl oxidation; format: ADME, cell-based, Macaca fascicularis, Hepatocyte
[17] = Drug metabolism in cynomolgus monkey hepatocytes assessed as glucuronidation; format: ADME, cell-based, Macaca fascicularis, Hepatocyte
[18] = Drug metabolism in cynomolgus monkey hepatocytes assessed as sulfate conjugation; format: ADME, cell-based, Macaca fascicularis, Hepatocyte
[19] = Drug metabolism in cynomolgus monkey urine assessed as (2S,5S)-5-((5-(6-((4-Fluoro-3-methoxybenzyl)carbamoyl)-2-methylpyrimidin-4-yl)-2H-tetrazol-2-yl)methyl)-1,4-dioxane-2-carboxylic acid formation; format: ADME, tissue-based, Macaca fascicularis
[20] = Drug metabolism in cynomolgus monkey urine assessed as demethylation; format: ADME, tissue-based, Macaca fascicularis
[21] = Drug metabolism in cynomolgus monkey urine assessed as methyl oxidation; format: ADME, tissue-based, Macaca fascicularis
[22] = Drug metabolism in cynomolgus monkey urine assessed as glucuronidation; format: ADME, tissue-based, Macaca fascicularis
[23] = Drug metabolism in cynomolgus monkey urine assessed as sulfate conjugation; format: ADME, Macaca fascicularis
[24] = Clearance in beagle dog at 1 mg/kg, po and iv; format: ADME, organism-based, Canis lupus familiaris; settings: in vivo
[25] = Oral bioavailability in beagle dog at 1 mg/kg; format: ADME, organism-based, Canis lupus familiaris; settings: in vivo
Cytochrome P450 2C9 = Cytochrome P450 2C9 (Homo sapiens, UniProt P11712); assay: Inhibition of CYP2C9 in human liver microsomes assessed as reduction of diclofenac metabolism after 8 mins; format: ADME
Chain of Cytochrome P450 2C9 (P11712 whole entry, the tested form may be a part): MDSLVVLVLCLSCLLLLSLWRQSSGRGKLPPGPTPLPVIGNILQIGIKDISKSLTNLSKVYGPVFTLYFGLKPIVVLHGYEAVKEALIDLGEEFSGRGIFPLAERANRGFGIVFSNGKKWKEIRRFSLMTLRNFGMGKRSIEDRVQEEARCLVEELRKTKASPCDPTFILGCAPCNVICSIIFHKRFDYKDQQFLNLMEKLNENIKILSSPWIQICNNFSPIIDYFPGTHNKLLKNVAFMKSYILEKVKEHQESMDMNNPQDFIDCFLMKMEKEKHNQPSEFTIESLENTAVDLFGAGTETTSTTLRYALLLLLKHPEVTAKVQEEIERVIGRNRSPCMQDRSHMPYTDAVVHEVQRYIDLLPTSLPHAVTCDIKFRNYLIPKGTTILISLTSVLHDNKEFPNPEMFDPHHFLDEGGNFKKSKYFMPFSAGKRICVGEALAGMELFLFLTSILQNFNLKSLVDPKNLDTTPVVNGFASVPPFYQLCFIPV

Stromelysin-1 = Stromelysin-1 (Homo sapiens, UniProt P08254); assay: Inhibition of MMP3 (unknown origin) catalytic domain using MCA-Arg-Pro-Leu-Gly-Leu-Dpa-Ala-Arg-Glu-Arg-NH2 as substrate preincubated for 60 mins followed by substrate addition by fluorescence assay
Chain of Stromelysin-1 (P08254 whole entry, the tested form may be a part): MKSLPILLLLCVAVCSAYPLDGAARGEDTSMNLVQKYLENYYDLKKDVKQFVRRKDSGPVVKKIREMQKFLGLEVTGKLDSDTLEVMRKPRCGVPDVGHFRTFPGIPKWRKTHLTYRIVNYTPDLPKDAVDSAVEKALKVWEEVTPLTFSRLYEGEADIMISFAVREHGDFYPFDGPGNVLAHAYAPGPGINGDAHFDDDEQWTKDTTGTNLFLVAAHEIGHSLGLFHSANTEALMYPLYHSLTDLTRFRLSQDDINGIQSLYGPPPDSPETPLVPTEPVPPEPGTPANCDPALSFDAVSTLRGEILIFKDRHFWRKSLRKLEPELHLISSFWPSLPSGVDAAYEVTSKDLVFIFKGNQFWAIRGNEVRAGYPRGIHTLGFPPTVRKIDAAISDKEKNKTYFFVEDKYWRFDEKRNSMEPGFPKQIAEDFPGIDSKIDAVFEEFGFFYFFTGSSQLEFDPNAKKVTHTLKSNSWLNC

Rattus norvegicus [26] = assay: Drug level in Sprague-Dawley rat treated with N-(4-Fluoro-3-methoxybenzyl)-6-(2-(((2S,5R)-5-(hydroxymethyl)-1,4-dioxan-2-yl)methyl)-2H-tetrazol-5-yl)-2-methylpyrimidine-4-carboxamide at 1 mg/kg, po; format: ADME, organism-based; settings: in vivo
Cynomolgus monkey [27] = assay: Drug level in cynomolgus monkey treated with N-(4-Fluoro-3-methoxybenzyl)-6-(2-(((2S,5R)-5-(hydroxymethyl)-1,4-dioxan-2-yl)methyl)-2H-tetrazol-5-yl)-2-methylpyrimidine-4-carboxamide at 1 mg/kg, po; format: ADME, organism-based, Macaca fascicularis; settings: in vivo
Hepatocyte [28] = assay: Drug level in human hepatocytes treated with N-(4-Fluoro-3-methoxybenzyl)-6-(2-(((2S,5R)-5-(hydroxymethyl)-1,4-dioxan-2-yl)methyl)-2H-tetrazol-5-yl)-2-methylpyrimidine-4-carboxamide; format: ADME, cell-based
[29] = Drug level in cynomolgus monkey hepatocytes treated with N-(4-Fluoro-3-methoxybenzyl)-6-(2-(((2S,5R)-5-(hydroxymethyl)-1,4-dioxan-2-yl)methyl)-2H-tetrazol-5-yl)-2-methylpyrimidine-4-carboxamide; format: ADME, cell-based, Macaca fascicularis, Hepatocyte
[30] = Drug level in cynomolgus monkey urine treated with N-(4-Fluoro-3-methoxybenzyl)-6-(2-(((2S,5R)-5-(hydroxymethyl)-1,4-dioxan-2-yl)methyl)-2H-tetrazol-5-yl)-2-methylpyrimidine-4-carboxamide; format: ADME, tissue-based, Macaca fascicularis; settings: in vivo

SMILES: COc1cc(CNC(=O)c2cc(-c3nnn(C[C@H]4CO[C@H](CO)CO4)n3)nc(C)n2)ccc1F
- Activity (Cynomolgus monkey [1]): Non-toxic
- IC50 (Cytochrome P450 1A2): > 30 µM
- Ki (Collagenase 3): 0.0015 µM
- microsomal CLint [2]: < 8 µL/min/mg
- clearance [3]: 18.2 mL/min/kg
- bioavailability [4]: 95%
- IC50 (Cytochrome P450 2D6): > 30 µM
- IC50 (Cytochrome P450 3A4): > 30 µM
- clearance [5]: 2.1 mL/min/kg
- bioavailability [6]: 88%
- Drug metabolism (Rattus norvegicus [7]): metabolite_detected
- Drug metabolism (Cynomolgus monkey [8]): metabolite_detected
- Drug metabolism (Hepatocyte [9]): metabolite_detected
- Drug metabolism (Hepatocyte [10]): metabolite_detected
- Drug metabolism (Hepatocyte [11]): metabolite_detected
- Drug metabolism (Hepatocyte [12]): metabolite_detected
- Drug metabolism (Hepatocyte [13]): metabolite_detected
- Drug metabolism [14]: metabolite_detected
- Drug metabolism [15]: metabolite_detected
- Drug metabolism [16]: metabolite_detected
- Drug metabolism [17]: metabolite_detected
- Drug metabolism [18]: metabolite_detected
- Drug metabolism [19]: metabolite_detected
- Drug metabolism [20]: metabolite_detected
- Drug metabolism [21]: metabolite_detected
- Drug metabolism [22]: metabolite_detected
- Drug metabolism [23]: metabolite_detected
- clearance [24]: 8.2 mL/min/kg
- bioavailability [25]: 64%
- IC50 (Cytochrome P450 2C9): > 30 µM
- Ki (Stromelysin-1): > 10 µM

SMILES: COc1cc(CNC(=O)c2cc(-c3nnn(C[C@H]4CO[C@H](C(=O)O)CO4)n3)nc(C)n2)ccc1F
- Ki (Collagenase 3): 0.0002 µM
- Drug metabolism (Rattus norvegicus [26]): metabolite_detected
- Drug metabolism (Cynomolgus monkey [27]): metabolite_detected
- Drug metabolism (Hepatocyte [28]): metabolite_detected
- Drug metabolism [29]: metabolite_detected
- Drug metabolism [30]: metabolite_detected
